US20080044484A1, “Use of polymeric nanoparticles for vaccine delivery” (THE REGENTS OF THE UNIVERSITY OF CALIFORNIA, priority 2004, published 2008)

Columns and labels:
Format in all cases: cell-based, human
[1] = system: T2 cells; assay: IFNγ release by CTL (ELISA) after incubation with peptide-loaded T2 cells; conditions: CTL elicited with the corresponding HER2/neu peptide, 20 h, 10^5 CTL/well
Procedure: In interferon gamma-release assays, 10^5 HER2/neu-specific CTL were co-incubated with 10^5 peptide-loaded T2 cells for 20 hours at 37° C. The concentrations of human interferon gamma in co-cultured supernatants were then determined by ELISA.

[2] = system: ICP47-transfected cells MCF7; assay: Functional blockade of TAP by ICP47, 51Cr-release from peptide-loaded cells; conditions: CTL reactive against the corresponding HER2/neu peptide, 3 days after peptide loading, 6-hour assay
Source text: Another aspect in these studies was to determine the mechanisms of enhancement of the antigen presentation by the fusion peptides in human tumor cell lines. Therefore, a new test system was developed utilizing the Herpes Simplex virus (HSV) protein ICP47. ICP47 is a cytoplasmic protein, which interferes with antigen presentation by physically associating with TAP within the cell and inhibiting peptide transport across the ER-membrane. By transfecting the ICP47 gene into several cancer cell lines a novel system for screening different fusion peptides for TAP-independent translocation of peptide antigens through the ER-membrane was generated.
The expression of these antigens was detected by ^51Cr-release assays.

[3] = system: breast cancer cells MDA-MB-231; assay: IFNγ release by CTL (ELISA) after incubation with peptide-loaded MDA-MB-231 cells; conditions: CTL elicited with the corresponding HER2/neu peptide, 20 h, 10^5 CTL/well
Procedure: In interferon gamma release assays, 10^5 HER2/neu-specific CTL were co-incubated with 10^5 peptide-loaded tumor cells for 20 hours at 37° C. The concentration of human interferon gamma in co-cultured supernatants was then determined by ELISA.

| Substance | Release of IFNγ by CTL, T2 cells loaded with the peptide ([1]; Day 1 after peptide loading) | Release of IFNγ by CTL, T2 cells loaded with the peptide ([1]; Day 3 after peptide loading) | Release of IFNγ by CTL, T2 cells loaded with the peptide ([1]; Day 5 after peptide loading) | Release of IFNγ by CTL, T2 cells loaded with the peptide ([1]; Day 8 after peptide loading) | Percent 51Cr Released From ICP47-transfected MCF7 cells loaded with the construct ([2]; E:T 20:1) | Percent 51Cr Released From ICP47-transfected MCF7 cells loaded with the construct ([2]; E:T 40:1) | Release of IFNγ by CTL, MDA-MB-231 cells loaded with the peptide ([3]; Day 1 after peptide loading) | Release of IFNγ by CTL, MDA-MB-231 cells loaded with the peptide ([3]; Day 3 after peptide loading) | Release of IFNγ by CTL, MDA-MB-231 cells loaded with the peptide ([3]; Day 5 after peptide loading) | Release of IFNγ by CTL, MDA-MB-231 cells loaded with the peptide ([3]; Day 8 after peptide loading) |
| --- | --- | --- | --- | --- | --- | --- | --- | --- | --- | --- |
| M A CLTSTVQLV A A A A A G (MACLTSTVQLVAAAAAG) [HER789-797-IN-AF] | 296 pg/mL | 327 pg/mL | 178 pg/mL | 117 pg/mL | – | – | – | – | – | – |
| M R CLTSTVQLV A A V C S A (MRCLTSTVQLVAAVCSA) [HER789-797-IN-ES] | 246 pg/mL | 312 pg/mL | 121 pg/mL | 107 pg/mL | – | – | – | – | – | – |
| M R IISAVVGIL A A V C S A (MRIISAVVGILAAVCSA) [HER654-662-IN-ES] | 2929 pg/mL | 2773 pg/mL | 1699 pg/mL | 671 pg/mL | 2% | 2% | 2727 pg/mL | 2666 pg/mL | 1708 pg/mL | 667 pg/mL |
| MR HLYQGCQVV AAVCSA (MRHLYQGCQVVAAVCSA) [HER48-56-IN-ES] | 3368 pg/mL | 1349 pg/mL | 988 pg/mL | 228 pg/mL | – | – | – | – | – | – |
| MRYMILGLLALAAVCSA CLTSTVQLV (MRYMILGLLALAAVCSACLTSTVQLV) [ES-HER789-797] | 1824 pg/mL | 526 pg/mL | 168 pg/mL | 110 pg/mL | – | – | – | – | – | – |
| MRYMILGLLALAAVCSA HLYQGCQVV (MRYMILGLLALAAVCSAHLYQGCQVV) [ES-HER48-56] | 2894 pg/mL | 1876 pg/mL | 953 pg/mL | 589 pg/mL | – | – | – | – | – | – |
| MRYMILGLLALAAVCSA IISAVVGIL (MRYMILGLLALAAVCSAIISAVVGIL) [ES-HER654-662] | 2667 pg/mL | 2518 pg/mL | 1245 pg/mL | 581 pg/mL | 2% | 3% | 2767 pg/mL | 2622 pg/mL | 1445 pg/mL | 578 pg/mL |
| MTNKCLLQIALLLCFSTTALS CLTSTVQLV (MTNKCLLQIALLLCFSTTALSCLTSTVQLV) [IS-HER789-797] | 1717 pg/mL | 315 pg/mL | 125 pg/mL | 104 pg/mL | – | – | – | – | – | – |
| MTNKCLLQIALLLCFSTTALS HLYQGCQVV (MTNKCLLQIALLLCFSTTALSHLYQGCQVV) [IS-HER48-56] | 3268 pg/mL | 1264 pg/mL | 943 pg/mL | 614 pg/mL | – | – | – | – | – | – |
| MTNKCLLQIALLLCFSTTALS IISAVVGIL (MTNKCLLQIALLLCFSTTALSIISAVVGIL) [IS-HER654-662] | 2590 pg/mL | 1990 pg/mL | 1557 pg/mL | 615 pg/mL | 3% | 5% | 2678 pg/mL | 1974 pg/mL | 1604 pg/mL | 628 pg/mL |
